Data from US10392428B2, “GLP-1 derivatives and uses thereof” (Novo Nordisk A/S, priority 2014, dated 2019).
pEC50, pIC50: −log10 of the molar value. Like-named read-outs stand apart in the source and are kept apart here. Non-standard residues stand in square brackets, D forms with d. Residues, ends and D or L forms follow the SMILES beside them. Groups on a side chain read outwards from the residue. *: point of attachment. X2 = O=C(O)CCCCCCCCCCCCCCCCCCC(=O)NC[C@H]1CC[C@H](C(=O)N[C@@H](CCC(=O)NCCCC[C@H](NC(=O)CC[C@H](NC(=O)[C@H]2CC[C@H](CNC(=O)CCCCCCCCCCCCCCCCCCC(=O)O)CC2)C(=O)O)C(=O)*)C(=O)O)CC1; Desaminohistidyl = O=C(CCc1c[nH]cn1)*; AEEA = NCCOCCOCC(=O)O; Aib = CC(C)(N)C(=O)O

What was measured:
human GLP-1 receptor [1] = target: T1, human GLP-1 receptor (Homo sapiens, UniProt P43220); assay: GLP-1 receptor binding: competitive binding assay (125I-GLP-1, SPA) on isolated membranes at low and high HSA
T1 construct: expressed in transfected cells; host or cells: membrane preparation from BHK cells, clone FCW467-12A (parent line BHKTS13)
T1 sequence (P43220 24-463): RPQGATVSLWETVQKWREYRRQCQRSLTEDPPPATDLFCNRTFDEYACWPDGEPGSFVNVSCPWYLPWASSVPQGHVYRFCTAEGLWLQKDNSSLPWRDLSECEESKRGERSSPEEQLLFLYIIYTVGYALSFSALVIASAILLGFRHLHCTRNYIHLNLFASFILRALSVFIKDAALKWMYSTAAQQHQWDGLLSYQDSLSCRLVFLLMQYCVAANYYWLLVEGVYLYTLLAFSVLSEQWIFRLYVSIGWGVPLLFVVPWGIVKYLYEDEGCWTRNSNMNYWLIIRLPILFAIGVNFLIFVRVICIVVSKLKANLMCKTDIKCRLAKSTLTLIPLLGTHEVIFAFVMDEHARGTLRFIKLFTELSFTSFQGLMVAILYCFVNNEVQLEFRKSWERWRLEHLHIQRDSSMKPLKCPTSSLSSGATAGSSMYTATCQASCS
Description: The purpose of this example is to test the receptor binding of the GLP-1 derivatives in vitro. The receptor binding is a measure of affinity of a derivative for the human GLP-1 receptor.
Each derivative is added in a series of concentrations to isolated membranes containing the human GLP-1 receptor and displacement of the labelled ligand is monitored. The receptor binding is reported as the concentration at which half of the labelled ligand is displaced from the receptor, the IC50 value.
Buffer 1 consisted of 20 mM Na-HEPES plus 10 mM EDTA and pH was adjusted to 7.4. Buffer 2 consisted of 20 mM Na-HEPES plus 0.1 mM EDTA and pH was adjusted to 7.4. Assay buffer consisted of 50 mM HEPES supplemented with 5 mM EGTA, 5 mM MgCl2, 0.005% Tween 20 and pH was adjusted to 7.4. An 8% albumin stock consisted of HSA dissolved at 8% (w/v) in assay buffer. An 0.02% albumin stock consisted of HSA dissolved at 0.02% (w/v) in assay buffer.
The cells express the human GLP-1 receptor.
The cells were grown at 5% CO2 in DMEM, 10% fetal calf serum, 1% Pen/Strep (Penicillin/Streptomycin) and 1.0 mg/ml of the selection marker G418.
To make a membrane preparation the cells were grown to approximately 80% confluence. The cells were washed twice in phosphate-buffered saline and harvested. The cells were pelleted using a brief centrifugation and the cell pellet was kept on ice. […] The homogenate was centrifuged for 15 minutes. The pellet was re-suspended (homogenised) in 10 ml buffer 2 and centrifuged. This step was repeated once more. The resulting pellet was re-suspended in buffer 2 and the protein concentration was determined. The membranes were aliquoted and stored at minus 80° C.
For the receptor binding assay in the presence of low HSA (0.005%) 50 μl of the assay buffer was added to each well of an assay plate.
For the receptor binding assay in the presence of high HSA (2%) 50 μl of the 8% albumin stock was added to each well of an assay plate.
Cell membrane aliquots were thawed and diluted to their working concentration. Fifty μl were added to each well in the assay plate.
WGA SPA beads were suspended in assay buffer at 20 mg/ml. The suspension was diluted to 10 mg/ml in assay buffer just prior to addition to the assay plate. Fifty μl were added to each well in the assay plate.
A 25 μl aliquot was reserved for measuring total counts/well.
The assay plate was incubated for 2 h at 30° C.
The assay plate was centrifuged for 10 min.
The assay plate was read in a Packard TopCount NXT instrument.
The data from the TopCount instrument were transferred to Graph Pad Prism software. Individual replicates were analysed using non-linear regression. IC50 values were calculated by the software and reported in nM. The reported values are averages of all of the measured values for each compound.

human GLP-1 receptor [2] = target: T1, human GLP-1 receptor; assay: In vitro potency: CRE luciferase reporter gene assay in BHK cells expressing the human GLP-1 receptor; assay type: cell-based; conditions: whole cell reporter gene assay, 3 h incubation, average of at least two replicates
Description: The purpose of this example is to test the activity, or potency, of the GLP-1 derivatives in vitro. The in vitro potency is the measure of human GLP-1 receptor activation in a whole cell assay.
In vitro potency was determined by measuring the response of the human GLP-1 receptor in a reporter gene assay. The assay was performed in a stably transfected BHK cell line that expresses the human GLP-1 receptor and contains the DNA for the cAMP response element (CRE) coupled to a promoter and the gene for firefly luciferase (CRE luciferase). When the human GLP-1 receptor is activated it results in the production of cAMP, which in turn results in the luciferase protein being expressed. When assay incubation is completed the luciferase substrate (luciferin) is added and the enzyme converts luciferin to oxyluciferin to produce bioluminescence. The luminescence is measured as the readout for the assay.
The cells were cultured at 5% CO2 in cell culture medium. They were aliquoted and stored in liquid nitrogen. Before each assay an aliquot was taken up and washed twice in PBS before being suspended at the desired concentration in the assay specific buffer.
Assay medium consisted of DMEM w/o phenol red, 10 mM Hepes and 1χ Glutamax. The assay buffer consisted of 2% ovalbumin and 0.2% Pluronic F-68 in assay medium.
1) Cell stocks were thawed in a 37° C. water bath.
2) Cells were washed three times in PBS.
3) Cells were counted and adjusted to 5×10^3 cells/50 μl (1×10^5 cells/ml) in assay medium. A 50 μl aliquot of cells was transferred to each well in the assay plate.
4) Stocks of the test compounds and reference compounds were diluted to a concentration of 0.2 μM in assay buffer. […] 8) A 100 μl aliquot of steadylite plus reagent was added to each well of the assay plate. […] 10) Each assay plate was read in a BioTek Synergy 2 Multi-Mode Reader.
The data from the BioTek Synergy 2 Multi-Mode Reader were transferred to GraphPad Prism software. […]
A minimum of two replicates was measured for each sample. The reported EC50 values are averages of all of the measured values for each compound.

[3] = tested on: obese, diabetic mouse model (db/db mice); assay: Pharmacodynamic study in db/db mice: acute effect on blood glucose and body weight; assay type: in vivo
Description: The purpose of the study is to verify the acute effect of the GLP-1 derivatives on blood glucose (BG) and body weight (BW) in a diabetic setting.
The GLP-1 derivatives of Examples 2-4 and 6-10 were tested in a single-dose study in an obese, diabetic mouse model (db/db mice) as described in the following.
Six db/db mice per compound to be tested (from Taconic, Denmark), fed from birth with the diet NIH31 (NIH 31M Rodent Diet, commercially available from Taconic Farms, Inc., US, see www.taconic.com), were enrolled for the study at the age of approximately 10 weeks. At arrival to the animal facility the mice were given free access to standard chow (e.g. Altromin 1324, Brogaarden, Denmark) and tap water and kept at 24° C. After 1-2 weeks of acclimatisation, the basal blood glucose was assessed twice on two consecutive days (i.e. at 9 am). The mice were allocated to treatment groups based on matching blood glucose levels and body weights. […]
On the day of dosing, blood glucose was assessed at time −½ h (8.30 am), the mice were weighed after this. […] On the day of dosing, blood glucose was assessed at times 1, 2, 4 and 8 h (10 am, 11 am, 1 pm and 5 pm) after dosing.
On the following days, the blood glucose was assessed at time 24 h, 48 h, 72 h, and 96 h (all Example compounds), and for the GLP-1 derivatives of Examples […] blood glucose was further assessed daily up to 240 h after dosing. […]
Samples for the measurement of blood glucose were obtained from the tail tip capillary of conscious mice. […] The glucose concentration was measured using the glucose oxidase method (glucose analyser Biosen 5040, EKF Diagnostic, GmbH, Germany). […]
The data are presented as percent change in blood glucose or body weight measured at the 48 h time points. For example, the percent change in blood glucose level at 48 h for each individual is calculated as follows: [[(blood glucose level at 48 h)−(basal blood glucose level)]/(basal blood glucose level)]×100%], where basal blood glucose level refers to the level before the administration of any treatment−and vice versa for the body weight change. […]

[4] = High HSA IC50 (nM), high HSA (2.0% final assay concentration)
[5] = single s.c. dose 10 nmol/kg, 48 h vs basal

Row | pIC50 (human GLP-1 receptor [1]; low HSA (max. 0.001% final assay concentration), read-out: Low HSA IC50) | Compound | IC50 (human GLP-1 receptor [1]; [4]) [nM] | pEC50 (human GLP-1 receptor [2]) | effect on BG ([3]; after 48 h, single s.c. injection of either 3, 10 or 30 nmol/kg) | % change in blood glucose [3, 5] [%] | % change in body weight [3, 5] [%] | IC50 (human GLP-1 receptor [1]; Low HSA IC50 (nM), low HSA (max. 0.001% final assay concentration)) [nM]
1 |  | CC[C@H](C)[C@H](NC(=O)[C@H](Cc1ccccc1)NC(=O)[C@H](CCC(=O)O)NC(=O)[C@H](CCCNC(=N)N)NC(=O)[C@H](C)NC(=O)[C@H](C)NC(=O)[C@H](CCC(N)=O)NC(=O)[C@H](CCC(=O)O)NC(=O)[C@H](CCC(=O)O)NC(=O)[C@H](CC(C)C)NC(=O)[C@H](Cc1ccc(O)cc1)NC(=O)[C@H](CO)NC(=O)[C@H](CO)NC(=O)[C@@H](NC(=O)[C@H](CC(=O)O)NC(=O)[C@H](CO)NC(=O)[C@@H](NC(=O)[C@H](Cc1ccccc1)NC(=O)[C@@H](NC(=O)CNC(=O)[C@H](CCC(=O)O)NC(=O)C(C)(C)NC(=O)CCc1cnc[nH]1)[C@@H](C)O)[C@@H](C)O)C(C)C)C(=O)N[C@@H](C)C(=O)N[C@@H](Cc1c[nH]c2ccccc12)C(=O)N[C@@H](CC(C)C)C(=O)N[C@H](C(=O)N[C@@H](CCCNC(=N)N)C(=O)NCC(=O)N[C@@H](CCCNC(=N)N)C(=O)NCC(=O)NCC(=O)N[C@@H](CCCCNC(=O)COCCOCCNC(=O)COCCOCCNC(=O)COCCOCCNC(=O)COCCOCCNC(=O)[C@H](CCCCNC(=O)CC[C@H](NC(=O)[C@H]1CC[C@H](CNC(=O)CCCCCCCCCCCCCCCCCCC(=O)O)CC1)C(=O)O)NC(=O)CC[C@H](NC(=O)[C@H]1CC[C@H](CNC(=O)CCCCCCCCCCCCCCCCCCC(=O)O)CC1)C(=O)O)C(=O)O)C(C)C [Example 6, [Imp7,Aib8,Glu22,Arg26,Arg34]-GLP-1-(7-37)-peptidyl-Gly-N{Epsilon}[2-[2-[2-[[2-[2-[2-[[2-[2-[2-[[2-[2-[2-[[(2S)-2,6-bis[[(4S)-4-carboxy-4-[[4-[(19-carboxynonadecanoylamino)methyl]cyclohexanecarbonyl]amino]butanoyl]amino]hexanoyl]amino]ethoxy]ethoxy]acetyl]amino]ethoxy]ethoxy]acetyl]amino]ethoxy]ethoxy]acetyl]amino]ethoxy]ethoxy]acetyl]Lys] (Desaminohistidyl-[Aib]EGTFTSDVSSYLEEQAAREFIAWLVRGRGGK([AEEA-AEEA-AEEA-AEEA-X2])-OH; C-terminus assumed) | 140 | 9.82 |  |  |  | 
2 | 7.72 | CC[C@H](C)[C@H](NC(=O)[C@H](Cc1ccccc1)NC(=O)[C@H](CCC(=O)O)NC(=O)[C@H](CCCNC(=N)N)NC(=O)[C@H](C)NC(=O)[C@H](C)NC(=O)[C@H](CCC(N)=O)NC(=O)[C@H](CCC(=O)O)NC(=O)[C@H](CCC(=O)O)NC(=O)[C@H](CC(C)C)NC(=O)[C@H](Cc1ccc(O)cc1)NC(=O)[C@H](CO)NC(=O)[C@H](CO)NC(=O)[C@@H](NC(=O)[C@H](CC(=O)O)NC(=O)[C@H](CO)NC(=O)[C@@H](NC(=O)[C@H](Cc1ccccc1)NC(=O)[C@@H](NC(=O)CNC(=O)[C@H](CCC(=O)O)NC(=O)C(C)(C)NC(=O)[C@@H](N)Cc1c[nH]cn1)[C@@H](C)O)[C@@H](C)O)C(C)C)C(=O)N[C@@H](C)C(=O)N[C@@H](Cc1c[nH]c2ccccc12)C(=O)N[C@@H](CC(C)C)C(=O)N[C@H](C(=O)N[C@@H](CCCNC(=N)N)C(=O)NCC(=O)N[C@@H](CCCNC(=N)N)C(=O)N[C@@H](CCCCNC(=O)[C@@H](N)CCCCNC(=O)[C@@H](N)CCCCNC(=O)[C@@H](N)CCCCNC(=O)[C@@H](N)CCCCNC(=O)[C@H](CCCCNC(=O)CC[C@H](NC(=O)[C@H]1CC[C@H](CNC(=O)CCCCCCCCCCCCCCCCCCC(=O)O)CC1)C(=O)O)NC(=O)CC[C@H](NC(=O)[C@H]1CC[C@H](CNC(=O)CCCCCCCCCCCCCCCCCCC(=O)O)CC1)C(=O)O)C(=O)O)C(C)C [Example 10, N{Epsilon-37}-[(2S)-2-amino-6-[[(2S)-2-amino-6-[[(2S)-2-amino-6-[[(2S)-2-amino-6-[[(2S)-2,6-bis[[(4S)-4-carboxy-4-[[4-[(19-carboxynonadecanoylamino)methyl]cyclohexanecarbonyl]amino]butanoyl]amino]hexanoyl]amino]hexanoyl]amino]hexanoyl]amino]hexanoyl]amino]hexanoyl]-[Aib8,Glu22,Arg26,Arg34,Lys37]-GLP-1-(7-37)-peptide] |  | 9.82 | not as pronounced | −3 | −3 | 
3 |  | CC[C@H](C)[C@H](NC(=O)[C@H](Cc1ccccc1)NC(=O)[C@H](CCC(=O)O)NC(=O)[C@H](CCCNC(=N)N)NC(=O)[C@H](C)NC(=O)[C@H](C)NC(=O)[C@H](CCC(N)=O)NC(=O)[C@H](CCC(=O)O)NC(=O)[C@H](CCC(=O)O)NC(=O)[C@H](CC(C)C)NC(=O)[C@H](Cc1ccc(O)cc1)NC(=O)[C@H](CO)NC(=O)[C@H](CO)NC(=O)[C@@H](NC(=O)[C@H](CC(=O)O)NC(=O)[C@H](CO)NC(=O)[C@@H](NC(=O)[C@H](Cc1ccccc1)NC(=O)[C@@H](NC(=O)CNC(=O)[C@H](CCC(=O)O)NC(=O)C(C)(C)NC(=O)[C@@H](N)Cc1c[nH]cn1)[C@@H](C)O)[C@@H](C)O)C(C)C)C(=O)N[C@@H](C)C(=O)N[C@@H](Cc1c[nH]c2ccccc12)C(=O)N[C@@H](CC(C)C)C(=O)N[C@H](C(=O)N[C@@H](CCCNC(=N)N)C(=O)NCC(=O)N[C@@H](CCCNC(=N)N)C(=O)N[C@@H](CCCCNC(=O)COCCOCCNC(=O)COCCOCCNC(=O)[C@H](CCCCNC(=O)CC[C@H](NC(=O)[C@H]1CC[C@H](CNC(=O)CCCCCCCCCCCCCCCCCCC(=O)O)CC1)C(=O)O)NC(=O)CC[C@H](NC(=O)[C@H]1CC[C@H](CNC(=O)CCCCCCCCCCCCCCCCCCC(=O)O)CC1)C(=O)O)C(=O)O)C(C)C [Example 11, N{Epsilon-37}-[2-[2-[2-[[2-[2-[2-[[(2S)-2,6-bis[[(4S)-4-carboxy-4-[[4-[(19-carboxynonadecanoylamino)methyl]cyclohexanecarbonyl]amino]butanoyl]amino]hexanoyl]amino]ethoxy]ethoxy]acetyl]amino]ethoxy]ethoxy]acetyl]-[Aib8,Glu22,Arg26,Arg34,Lys37]-GLP-1-(7-37)-peptide] | 150 | 9.89 |  |  |  | 1.5
